No end group written: not given here.
System: Fas/FAP-1 binding
Assay: In vitro inhibition assay of Fas/FAP-1 binding (GST-Fas, 35S-labeled FAP-1)
Settings: 15-mer peptide 1-1000 μM; human PAMP 1 mM; peptides acetylated
Description: 3A. Inhibition assay of Fas/FAP-1 binding using the C-terminal 15 amino acids of Fas. GST-Fas fusion protein (191-355) was used for in vitro binding assay (lane 1, 3-10). GST-Fas fusion protein (191-320) (lane 2) and 1 mM human PAMP (N-terminal 20 amino acids of proadrenomedullin, M. W. 2460.9) (lane 3) were used as negative controls. The concentrations of the C-terminal 15 amino acids added were 1 (lane 4), 3 (lane 5), 10 (lane 6), 30 (lane 7), 100 (lane 8), 300 (lane 9), and 1000 μM (lane 10).
HFAP-10 cDNA (Sato, et al. 1995) subcloned into the Bluescript vector pSK-II (Stratagene) was in vitro-translated from an internal methionine codon in the presence of ^35S-L-methionine using a coupled in vitro transcription/translation system (Promega, TNT lysate) and T7 RNA polymerase. […] After washing vigorously 4 times in the same buffer, associated proteins were recovered with the glutathione-Sepharose beads by centrifugation, eluted into boiling Laemmli buffer, and analyzed by SDS-PAGE and fluorography.
In vitro-translated [^35S ]HFAP-1 was purified with a NAP-5 column (Pharmacia) and incubated with 3 μM of GST-fusion proteins for 16 hours at 4° C. After washing 4 times in the binding buffer, radioactivity incorporation was determined in a β counter. […]

Fas/FAP-1 binding, sequence (Q12923 1361-1456 limits assumed): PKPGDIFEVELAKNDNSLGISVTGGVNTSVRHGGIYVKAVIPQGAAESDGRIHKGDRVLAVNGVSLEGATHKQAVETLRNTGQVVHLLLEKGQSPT

| Substance | inhibitory effect on binding of in vitro-translated FAP-1 to GST-Fas |
| --- | --- |
| human PAMP peptide: N-terminal 20 amino acids of proadrenomedullin, negative control (ARLDVASEFRKKWNKWALSR; ends and bridges not checked; UniProt P35318 22-41, looked up) | no effect |
| synthetic 15 amino acids of Fas: synthetic peptide of the C-terminal 15 amino acids of Fas (Ac-DSENSNFRNEIQSLV) | dramatically reduced and dependent on the concentration |

Reference: patent US6743630B2, “Method of preparing a protein array based on biochemical protein-protein interaction” (The Trustees of Columbia University in the City of New York, priority 2002, dated 2004)
